Source: BindingDB's records for doi:10.1074/jbc.M110.139634 (French Alternative Energies and Atomic Energy Commission, 2010)

Key:
Assay in all cases: Enzyme Assay
Conditions in all cases: pH 6.8; 25 °C
[1] = molecular target: Collagenase 3 (Homo sapiens, UniProt P45452)
Excerpt: (§1) Enzyme assay using matrix metalloproteinases.

[2] = molecular target: T1, Disintegrin and metalloproteinase domain-containing protein 17 [215-477,S266A,N452Q] (Homo sapiens, UniProt P78536, N452Q/S266A)
T1 construct: 215-477
Excerpt: as §1

[3] = molecular target: Stromelysin-2 (Homo sapiens, UniProt P09238)
Excerpt: as §1

[4] = molecular target: Neutrophil collagenase (Homo sapiens, UniProt P22894)
Excerpt: as §1

[5] = molecular target: T2, Matrilysin (Homo sapiens, UniProt P09237)
T2 sequence (P09237 whole entry): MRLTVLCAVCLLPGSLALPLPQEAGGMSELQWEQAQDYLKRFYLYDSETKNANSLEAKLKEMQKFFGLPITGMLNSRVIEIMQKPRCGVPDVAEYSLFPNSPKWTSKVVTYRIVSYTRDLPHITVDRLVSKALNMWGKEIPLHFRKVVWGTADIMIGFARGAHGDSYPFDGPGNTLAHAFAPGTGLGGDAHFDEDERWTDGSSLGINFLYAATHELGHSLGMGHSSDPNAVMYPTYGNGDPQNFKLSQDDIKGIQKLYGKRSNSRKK
Excerpt: as §1

[6] = molecular target: Angiotensin-converting enzyme (Homo sapiens, UniProt P12821)
Excerpt: as §1

[7] = molecular target: Matrix metalloproteinase-9 (Homo sapiens, UniProt P14780)
Excerpt: as §1

[8] = molecular target: Matrix metalloproteinase-14 (Homo sapiens, UniProt P50281)
Excerpt: as §1

[9] = molecular target: T3, Interstitial collagenase (Homo sapiens, UniProt P03956)
T3 sequence (P03956 whole entry): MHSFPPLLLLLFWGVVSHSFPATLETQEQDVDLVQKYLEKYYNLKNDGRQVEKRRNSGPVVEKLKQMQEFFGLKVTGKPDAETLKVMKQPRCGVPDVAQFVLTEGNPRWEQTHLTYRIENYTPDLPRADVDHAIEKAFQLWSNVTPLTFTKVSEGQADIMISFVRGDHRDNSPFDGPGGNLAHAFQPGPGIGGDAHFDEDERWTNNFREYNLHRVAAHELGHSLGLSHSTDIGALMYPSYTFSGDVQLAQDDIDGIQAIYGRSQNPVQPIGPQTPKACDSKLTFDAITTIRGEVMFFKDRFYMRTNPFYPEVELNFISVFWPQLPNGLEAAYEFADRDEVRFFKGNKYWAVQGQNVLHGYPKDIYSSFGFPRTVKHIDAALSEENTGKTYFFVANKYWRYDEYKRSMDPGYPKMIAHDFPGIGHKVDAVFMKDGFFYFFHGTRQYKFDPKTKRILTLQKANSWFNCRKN
Excerpt: as §1

[10] = molecular target: Stromelysin-1 (Homo sapiens, UniProt P08254)
Excerpt: as §1

[11] = molecular target: Macrophage metalloelastase (Homo sapiens, UniProt P39900)
Excerpt: as §1

[12] = molecular target: 72 kDa type IV collagenase (Homo sapiens, UniProt P08253)
Excerpt: as §1

72 kDa type IV collagenase, sequence (P08253 whole entry): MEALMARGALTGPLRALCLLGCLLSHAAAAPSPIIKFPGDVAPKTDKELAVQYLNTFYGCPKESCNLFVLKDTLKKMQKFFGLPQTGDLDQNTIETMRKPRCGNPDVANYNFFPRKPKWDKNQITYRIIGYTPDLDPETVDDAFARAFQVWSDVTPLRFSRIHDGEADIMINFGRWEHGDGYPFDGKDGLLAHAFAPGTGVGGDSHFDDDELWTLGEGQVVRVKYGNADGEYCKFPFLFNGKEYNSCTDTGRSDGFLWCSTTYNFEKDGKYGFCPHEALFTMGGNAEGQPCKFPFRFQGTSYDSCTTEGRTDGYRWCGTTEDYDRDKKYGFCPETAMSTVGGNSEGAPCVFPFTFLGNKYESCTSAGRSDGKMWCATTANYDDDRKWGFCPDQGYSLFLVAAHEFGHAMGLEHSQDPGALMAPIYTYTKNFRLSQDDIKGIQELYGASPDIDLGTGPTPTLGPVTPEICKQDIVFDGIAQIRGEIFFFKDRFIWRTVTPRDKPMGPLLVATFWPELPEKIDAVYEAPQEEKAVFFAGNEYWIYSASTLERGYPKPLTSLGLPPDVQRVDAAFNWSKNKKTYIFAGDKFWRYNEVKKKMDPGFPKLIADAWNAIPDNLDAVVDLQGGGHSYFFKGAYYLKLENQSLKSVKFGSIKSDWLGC
Stromelysin-2, sequence (P09238 whole entry): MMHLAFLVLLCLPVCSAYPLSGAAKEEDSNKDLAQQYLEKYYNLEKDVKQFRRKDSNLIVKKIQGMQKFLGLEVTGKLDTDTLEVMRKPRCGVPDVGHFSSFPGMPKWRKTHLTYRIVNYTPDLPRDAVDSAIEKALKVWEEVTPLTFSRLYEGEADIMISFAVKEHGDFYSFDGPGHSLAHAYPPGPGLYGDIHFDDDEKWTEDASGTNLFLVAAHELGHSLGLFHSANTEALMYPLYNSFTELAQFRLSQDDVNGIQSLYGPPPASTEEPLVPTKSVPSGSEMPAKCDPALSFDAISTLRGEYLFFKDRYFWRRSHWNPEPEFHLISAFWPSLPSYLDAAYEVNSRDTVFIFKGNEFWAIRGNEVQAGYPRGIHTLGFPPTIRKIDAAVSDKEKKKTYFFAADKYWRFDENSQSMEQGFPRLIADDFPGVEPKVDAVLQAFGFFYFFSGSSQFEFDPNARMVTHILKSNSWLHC
Stromelysin-1, sequence (P08254 whole entry): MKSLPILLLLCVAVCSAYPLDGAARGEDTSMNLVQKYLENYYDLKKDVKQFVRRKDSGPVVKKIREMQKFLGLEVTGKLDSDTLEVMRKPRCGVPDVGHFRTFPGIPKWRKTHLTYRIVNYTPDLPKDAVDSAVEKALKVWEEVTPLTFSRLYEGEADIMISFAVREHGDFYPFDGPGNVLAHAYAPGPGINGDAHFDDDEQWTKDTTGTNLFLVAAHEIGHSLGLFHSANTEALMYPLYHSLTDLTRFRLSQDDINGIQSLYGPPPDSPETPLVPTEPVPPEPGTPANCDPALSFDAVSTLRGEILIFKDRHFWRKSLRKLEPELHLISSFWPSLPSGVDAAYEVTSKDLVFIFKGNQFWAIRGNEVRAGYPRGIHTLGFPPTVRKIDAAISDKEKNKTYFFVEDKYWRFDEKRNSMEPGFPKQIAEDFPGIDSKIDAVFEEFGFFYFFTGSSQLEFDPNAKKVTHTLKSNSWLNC
Neutrophil collagenase, sequence (P22894 whole entry): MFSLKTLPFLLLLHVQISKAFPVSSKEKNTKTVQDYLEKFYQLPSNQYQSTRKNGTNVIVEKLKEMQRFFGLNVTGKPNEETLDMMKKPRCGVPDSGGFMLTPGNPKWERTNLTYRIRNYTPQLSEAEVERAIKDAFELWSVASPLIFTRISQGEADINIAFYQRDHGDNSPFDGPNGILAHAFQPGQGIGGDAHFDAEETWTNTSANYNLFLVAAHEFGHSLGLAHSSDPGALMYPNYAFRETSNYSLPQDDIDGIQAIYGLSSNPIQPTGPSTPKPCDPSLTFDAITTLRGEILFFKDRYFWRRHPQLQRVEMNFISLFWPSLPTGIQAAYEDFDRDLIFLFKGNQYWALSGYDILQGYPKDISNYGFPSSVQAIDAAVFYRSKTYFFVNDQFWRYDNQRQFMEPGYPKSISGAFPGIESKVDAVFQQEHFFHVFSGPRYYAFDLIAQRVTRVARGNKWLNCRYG
Matrix metalloproteinase-9, sequence (P14780 whole entry): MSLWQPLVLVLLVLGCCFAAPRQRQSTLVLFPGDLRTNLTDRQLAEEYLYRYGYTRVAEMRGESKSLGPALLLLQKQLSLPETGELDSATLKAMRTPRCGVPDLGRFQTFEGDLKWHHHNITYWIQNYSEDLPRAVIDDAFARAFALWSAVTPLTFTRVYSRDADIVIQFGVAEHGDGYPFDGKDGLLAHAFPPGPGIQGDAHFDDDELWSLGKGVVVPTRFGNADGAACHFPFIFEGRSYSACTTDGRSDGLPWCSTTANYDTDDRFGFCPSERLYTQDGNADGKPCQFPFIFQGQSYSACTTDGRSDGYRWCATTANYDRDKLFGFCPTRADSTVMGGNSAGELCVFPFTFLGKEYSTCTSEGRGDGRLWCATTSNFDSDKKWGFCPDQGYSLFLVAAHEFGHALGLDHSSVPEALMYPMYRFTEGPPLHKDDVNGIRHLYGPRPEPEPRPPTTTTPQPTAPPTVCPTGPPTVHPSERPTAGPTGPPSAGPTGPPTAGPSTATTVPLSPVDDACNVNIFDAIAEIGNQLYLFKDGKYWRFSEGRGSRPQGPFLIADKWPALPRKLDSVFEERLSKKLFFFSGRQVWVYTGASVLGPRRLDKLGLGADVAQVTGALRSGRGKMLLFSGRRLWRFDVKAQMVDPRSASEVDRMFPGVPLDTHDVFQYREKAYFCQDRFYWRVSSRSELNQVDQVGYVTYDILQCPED
Macrophage metalloelastase, sequence (P39900 whole entry): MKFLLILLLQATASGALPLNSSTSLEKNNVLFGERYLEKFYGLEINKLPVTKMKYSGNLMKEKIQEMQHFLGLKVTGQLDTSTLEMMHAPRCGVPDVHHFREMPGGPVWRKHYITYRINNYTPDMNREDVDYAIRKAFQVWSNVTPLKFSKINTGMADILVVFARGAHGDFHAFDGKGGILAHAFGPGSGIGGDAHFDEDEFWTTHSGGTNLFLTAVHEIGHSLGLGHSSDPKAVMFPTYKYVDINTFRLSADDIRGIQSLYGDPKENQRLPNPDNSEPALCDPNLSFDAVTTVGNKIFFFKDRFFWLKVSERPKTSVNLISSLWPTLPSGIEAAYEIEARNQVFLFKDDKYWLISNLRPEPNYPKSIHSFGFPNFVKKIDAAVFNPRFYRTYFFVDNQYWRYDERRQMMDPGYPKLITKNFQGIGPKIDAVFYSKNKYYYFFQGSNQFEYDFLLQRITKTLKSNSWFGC
T1 sequence (P78536 215-477 S266A/N452Q): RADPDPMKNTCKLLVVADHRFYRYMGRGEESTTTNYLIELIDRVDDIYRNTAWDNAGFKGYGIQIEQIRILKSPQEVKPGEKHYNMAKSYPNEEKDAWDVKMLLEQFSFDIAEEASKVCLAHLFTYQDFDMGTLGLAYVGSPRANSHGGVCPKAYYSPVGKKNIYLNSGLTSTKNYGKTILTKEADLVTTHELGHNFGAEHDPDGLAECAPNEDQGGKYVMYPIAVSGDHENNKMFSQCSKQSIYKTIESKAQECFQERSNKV
Angiotensin-converting enzyme, sequence (P12821 whole entry): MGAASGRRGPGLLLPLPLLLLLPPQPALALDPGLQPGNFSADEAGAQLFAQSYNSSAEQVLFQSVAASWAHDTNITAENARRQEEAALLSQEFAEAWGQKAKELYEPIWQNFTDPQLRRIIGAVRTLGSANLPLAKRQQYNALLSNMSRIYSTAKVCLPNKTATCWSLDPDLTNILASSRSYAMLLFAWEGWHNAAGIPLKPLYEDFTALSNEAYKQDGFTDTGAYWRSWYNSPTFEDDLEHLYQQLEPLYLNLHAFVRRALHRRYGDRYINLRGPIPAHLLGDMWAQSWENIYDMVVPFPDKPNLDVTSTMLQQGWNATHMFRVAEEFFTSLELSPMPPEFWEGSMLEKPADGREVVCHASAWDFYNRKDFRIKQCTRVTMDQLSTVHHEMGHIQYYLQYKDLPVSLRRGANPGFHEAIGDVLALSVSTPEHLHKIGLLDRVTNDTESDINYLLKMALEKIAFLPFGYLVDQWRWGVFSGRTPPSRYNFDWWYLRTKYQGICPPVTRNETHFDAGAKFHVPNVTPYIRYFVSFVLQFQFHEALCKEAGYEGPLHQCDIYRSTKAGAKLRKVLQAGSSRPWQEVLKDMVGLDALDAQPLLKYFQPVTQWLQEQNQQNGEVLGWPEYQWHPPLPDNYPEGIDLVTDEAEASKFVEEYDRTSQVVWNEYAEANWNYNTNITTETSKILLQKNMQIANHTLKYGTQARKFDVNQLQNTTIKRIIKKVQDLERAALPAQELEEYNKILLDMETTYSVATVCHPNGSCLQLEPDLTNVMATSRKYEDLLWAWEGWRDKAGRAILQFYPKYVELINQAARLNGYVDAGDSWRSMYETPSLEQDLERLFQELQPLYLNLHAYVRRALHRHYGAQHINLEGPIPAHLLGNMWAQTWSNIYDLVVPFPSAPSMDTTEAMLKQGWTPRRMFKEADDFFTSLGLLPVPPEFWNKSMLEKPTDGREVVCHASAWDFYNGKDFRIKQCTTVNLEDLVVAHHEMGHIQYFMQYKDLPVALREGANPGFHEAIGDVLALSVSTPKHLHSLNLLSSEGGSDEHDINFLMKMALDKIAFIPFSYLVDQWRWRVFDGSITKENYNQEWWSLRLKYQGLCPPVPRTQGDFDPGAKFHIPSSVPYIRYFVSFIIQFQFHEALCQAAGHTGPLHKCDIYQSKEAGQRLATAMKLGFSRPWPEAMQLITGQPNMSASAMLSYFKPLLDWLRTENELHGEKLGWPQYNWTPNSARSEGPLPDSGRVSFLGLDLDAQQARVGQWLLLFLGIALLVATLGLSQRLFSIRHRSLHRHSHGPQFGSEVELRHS

NC(=O)[C@@H](CCC(=O)O)NC(=O)[C@H](CCC(=O)O)NC(=O)C(Cc1cc(-c2ccc(-c3cccc(Cl)c3)cc2)no1)CP(=O)(O)c1ccc(Br)cc1 (some centres not stated) [RXP470, Compound 4]
Ki [1]: 49 nM
Ki [2]: > 10000 nM
Ki [3]: 8.3 nM
Ki [4]: 271 nM
Ki [5]: 626 nM
Ki [6]: > 10000 nM
Ki [7]: 850 nM
Ki [8]: 140 nM
Ki [9]: > 10000 nM
Ki [10]: 40 nM
Ki [11]: 0.19 nM
Ki [12]: 192 nM
